Values joined by “and” are separate entries in the source; they are usually repeats but may differ in a detail not shown here. Equal entries are not always repeated. Inconclusive results and toxic doses are left out.
Test system: P388 leukemia ip, CD2F1 mice, survival T/C
Assay: NCI In Vivo Anticancer Drug Screen. Data for tumor model P388 Leukemia (intraperitoneal) in CD2F1 (CDF1) mice
Details: endpoint: median survival time, higher = longer survival
How it was run: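 Mice carrying the transplanted tumor received test compound or vehicle. Survival was recorded in each group, and the value is the treated-group measurement divided by that of the vehicle-treated control group.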

[1] = dose: 50.0 mg/kg/injection, schedule: Q01DX009 (ip), vehicle: saline with Tween-80
[2] = dose: 100.0 mg/kg/injection, schedule: Q01DX009 (ip), vehicle: saline with Tween-80
[3] = dose: 100.0 mg/kg/injection, schedule: Q04DX002 (ip), vehicle: saline with Tween-80
[4] = dose: 200.0 mg/kg/injection, schedule: Q04DX002 (ip), vehicle: saline with Tween-80
[5] = dose: 50.0 mg/kg/injection, schedule: Q01DX005 (ip), vehicle: Klucel (hydroxypropylcellulose) (HPC)
[6] = dose: 100.0 mg/kg/injection, schedule: Q01DX005 (ip), vehicle: Klucel (hydroxypropylcellulose) (HPC)
[7] = dose: 200.0 mg/kg/injection, schedule: Q01DX005 (ip), vehicle: Klucel (hydroxypropylcellulose) (HPC)
[8] = dose: 12.5 mg/kg/injection, schedule: Q04DX003 (ip), vehicle: saline with Tween-80
[9] = dose: 25.0 mg/kg/injection, schedule: Q04DX003 (ip), vehicle: saline with Tween-80
[10] = dose: 50.0 mg/kg/injection, schedule: Q04DX003 (ip), vehicle: saline with Tween-80
[11] = dose: 50.0 mg/kg/injection, schedule: Q01DX009 (ip), vehicle: saline

Structure (SMILES): Brc1ccc(C[N+]23CN4CN(CN(C4)C2)C3)cc1
- T/C [1]: 100 % of control
- T/C [2]: 120 % of control
- T/C (dose: 100.0 mg/kg/injection, schedule: Q04DX003 (ip), vehicle: saline): 110 % of control
- T/C (dose: 200.0 mg/kg/injection, schedule: Q04DX003 (ip), vehicle: saline): 110 % of control

Structure (SMILES): NC(CS/C(Cl)=C/Cl)C(=O)O (centres undefined)
- T/C (dose: 12.0 mg/kg/injection, schedule: Q01DX009 (ip), vehicle: saline with Tween-80): 117 % of control
- T/C (dose: 27.0 mg/kg/injection, schedule: Q01DX009 (ip), vehicle: saline with Tween-80): 117 % of control

Structure (SMILES): COC(=O)CC1C2(C)CC34OC5(C)OC6(C7CC(=O)OC(c8ccoc8)C7(C)CCC6(O5)C13C)C(OC(=O)C(C)C)C4(O)C2OC(=O)C(C)C (centres undefined)
- T/C (dose: 0.37 mg/kg/injection, schedule: Q01DX009 (ip), vehicle: Klucel (hydroxypropylcellulose) (HPC)): 109 % of control
- T/C (dose: 0.75 mg/kg/injection, schedule: Q01DX009 (ip), vehicle: Klucel (hydroxypropylcellulose) (HPC)): 109 % of control
- T/C (dose: 1.5 mg/kg/injection, schedule: Q01DX009 (ip), vehicle: Klucel (hydroxypropylcellulose) (HPC)): 102 % of control
- T/C (dose: 3.0 mg/kg/injection, schedule: Q01DX009 (ip), vehicle: Klucel (hydroxypropylcellulose) (HPC)): 101 % of control

Structure (SMILES): CCCCCCCCCCCCCCCCCC(=O)NC1=C(Cl)C(=O)c2ccccc2C1=O
- T/C (dose: 50.0 mg/kg/injection, schedule: Q01DX005 (ip), vehicle: saline with Tween-80): 94 % of control
- T/C (dose: 100.0 mg/kg/injection, schedule: Q01DX005 (ip), vehicle: saline with Tween-80): 94 % of control
- T/C (dose: 200.0 mg/kg/injection, schedule: Q01DX005 (ip), vehicle: saline with Tween-80): 91 % of control

Structure (SMILES): Cc1cc(C)n(C2=NC3(C)NC(=O)NC3(C)N2)n1 (centres undefined)
- T/C (dose: 50.0 mg/kg/injection, schedule: Q04DX002 (ip), vehicle: saline with Tween-80): 98 % of control
- T/C [3]: 94 % of control
- T/C [4]: 98 % of control

Structure (SMILES): CN(C)CCOc1ccc2c(c1)C/C(=C/c1ncc([N+](=O)[O-])n1C)C2=O
- T/C (dose: 11.0 mg/kg/injection, schedule: Q01DX009 (ip), vehicle: saline with Tween-80): 124 % of control
- T/C (dose: 15.0 mg/kg/injection, schedule: Q01DX009 (ip), vehicle: saline with Tween-80): 109 % of control and 117 % of control
- T/C (dose: 22.0 mg/kg/injection, schedule: Q01DX009 (ip), vehicle: saline with Tween-80): 124 % of control
- T/C (dose: 30.0 mg/kg/injection, schedule: Q01DX009 (ip), vehicle: saline with Tween-80): 119 % of control
- T/C (dose: 60.0 mg/kg/injection, schedule: Q01DX009 (ip), vehicle: saline with Tween-80): 117 % of control
- T/C (dose: 180.0 mg/kg/injection, schedule: Q01DX009 (ip), vehicle: saline with Tween-80): 87 % of control

Structure (SMILES): COC1CC23OC2(C1)C1C=CC3N(C(=O)OCC(Cl)(Cl)Cl)N1C(=O)OCC(Cl)(Cl)Cl (centres undefined)
- T/C [5]: 102 % of control
- T/C [6]: 105 % of control
- T/C [7]: 102 % of control

Structure (SMILES): O=C(Cc1nc2ccccc2[nH]1)N/N=C1\SCC(=O)N1c1ccc(Cl)cc1
- T/C [5]: 103 % of control
- T/C [6]: 108 % of control
- T/C [7]: 104 % of control

Structure (SMILES): Cc1cc(N(CCCl)CCCl)ccc1N=Nc1ccccc1C(=O)[O-].Cc1cc(N(CCCl)CCCl)ccc1N=Nc1ccccc1C(=O)[O-].[Cu+2]
- T/C (dose: 12.0 mg/kg/injection, schedule: Q04DX003 (ip), vehicle: saline with Tween-80): 150 % of control
- T/C (dose: 12.5 mg/kg/injection, schedule: Q01DX009 (ip), vehicle: saline with Tween-80): 209 % of control
- T/C [8]: 154 % of control
- T/C (dose: 25.0 mg/kg/injection, schedule: Q01DX009 (ip), vehicle: saline with Tween-80): 95 % of control
- T/C [9]: 195 % of control
- T/C [10]: 95 % of control
- T/C (dose: 375.0 micrograms/kg/injection, schedule: Q04DX003 (ip), vehicle: saline): 109 % of control
- T/C (dose: 750.0 micrograms/kg/injection, schedule: Q04DX003 (ip), vehicle: saline): 109 % of control
- T/C (dose: 1500.0 micrograms/kg/injection, schedule: Q04DX003 (ip), vehicle: saline): 104 % of control

Structure (SMILES): CCN(CC)CCCNc1nccc2ccc(OC)cc12
- T/C (dose: 50.0 mg/kg/injection, schedule: Q01DX005 (ip), vehicle: saline): 99 % of control
- T/C (dose: 100.0 mg/kg/injection, schedule: Q01DX005 (ip), vehicle: saline): 99 % of control
- T/C (dose: 200.0 mg/kg/injection, schedule: Q01DX005 (ip), vehicle: saline): 97 % of control

Structure (SMILES): O=C(O)C1CSC(c2ccccc2O)N1 (centres undefined)
- T/C [11]: 90 % of control
- T/C (dose: 100.0 mg/kg/injection, schedule: Q01DX009 (ip), vehicle: saline): 96 % of control
- T/C (dose: 200.0 mg/kg/injection, schedule: Q01DX009 (ip), vehicle: saline): 90 % of control

Structure (SMILES): COC(=O)C1=C(C(=O)OC)P2(C)(C)OC(c3ccccc3)CN2C1(c1ccccc1)c1ccccc1 (centres undefined)
- T/C [5]: 98 % of control
- T/C [6]: 100 % of control
- T/C [7]: 91 % of control

Structure (SMILES): COc1ccc(CCN)cc1
- T/C [11]: 101 % of control and 106 % of control

Structure (SMILES): O=C1CSC(=O)N1c1ccc(Cl)c(Cl)c1
- T/C (dose: 12.5 mg/kg/injection, schedule: Q01DX009 (ip), vehicle: saline): 94 % of control
- T/C (dose: 25.0 mg/kg/injection, schedule: Q01DX009 (ip), vehicle: saline): 89 % of control
- T/C [1]: 95 % of control
- T/C [11]: 88 % of control
- T/C [2]: 87 % of control

Structure (SMILES): CCN(CC)Cc1cc(C)c(O)c(N=Nc2ccc([N+](=O)[O-])cc2)c1C
- T/C [3]: 101 % of control
- T/C [4]: 99 % of control
- T/C (dose: 400.0 mg/kg/injection, schedule: Q04DX002 (ip), vehicle: saline with Tween-80): 97 % of control

Structure (SMILES): C[CH2][Sn]([c]1ccccc1)([c]1ccccc1)[c]1ccccc1
- T/C [8]: 95 % of control
- T/C [9]: 100 % of control
- T/C [10]: 100 % of control

Structure (SMILES): N#CN=[N+]([O-])c1ccccc1Br
- T/C (dose: 3.12 mg/kg/injection, schedule: Q01DX009 (ip), vehicle: Klucel (hydroxypropylcellulose) (HPC)): 98 % of control
- T/C (dose: 6.25 mg/kg/injection, schedule: Q01DX009 (ip), vehicle: Klucel (hydroxypropylcellulose) (HPC)): 100 % of control
- T/C (dose: 6.25 mg/kg/injection, schedule: Q04DX003 (ip), vehicle: Klucel (hydroxypropylcellulose) (HPC)): 100 % of control
- T/C (dose: 12.5 mg/kg/injection, schedule: Q01DX009 (ip), vehicle: Klucel (hydroxypropylcellulose) (HPC)): 114 % of control
- T/C (dose: 12.5 mg/kg/injection, schedule: Q04DX003 (ip), vehicle: Klucel (hydroxypropylcellulose) (HPC)): 91 % of control
- T/C (dose: 25.0 mg/kg/injection, schedule: Q04DX003 (ip), vehicle: Klucel (hydroxypropylcellulose) (HPC)): 87 % of control

Structure (SMILES): CCN(CC)c1ccc2nc3ccc(=[N+](CC)CC)cc-3oc2c1
- T/C (dose: 7.5 mg/kg/injection, schedule: Q01DX005 (ip), vehicle: saline): 105 % of control
- T/C (dose: 15.0 mg/kg/injection, schedule: Q01DX005 (ip), vehicle: saline): 109 % of control

Structure (SMILES): Cc1cccc(-n2c(-c3ccccc3)cs/c2=N\N=C2/CSC(=O)N2Cc2ccccc2)c1
- T/C (dose: 100.0 mg/kg/injection, schedule: Q01DX001 (ip), vehicle: Klucel (hydroxypropylcellulose) (HPC)): 101 % of control
- T/C (dose: 200.0 mg/kg/injection, schedule: Q01DX001 (ip), vehicle: Klucel (hydroxypropylcellulose) (HPC)): 101 % of control
- T/C (dose: 400.0 mg/kg/injection, schedule: Q01DX001 (ip), vehicle: Klucel (hydroxypropylcellulose) (HPC)): 99 % of control

Structure (SMILES): COc1cc2c(cc1-c1coc3cc4occc4cc3c1=O)OCO2
- T/C (dose: 8.75 mg/kg/injection, schedule: Q01DX005 (ip), vehicle: saline with Tween-80): 87 % of control
- T/C (dose: 35.0 mg/kg/injection, schedule: Q01DX005 (ip), vehicle: saline with Tween-80): 87 % of control
- T/C (dose: 70.0 mg/kg/injection, schedule: Q01DX005 (ip), vehicle: saline with Tween-80): 89 % of control
- T/C (dose: 140.0 mg/kg/injection, schedule: Q01DX005 (ip), vehicle: saline with Tween-80): 99 % of control

Structure (SMILES): c1ccc(C(Sc2c[nH]c3ccccc23)(c2ccccc2)c2ccccc2)cc1 (tested in a mixture with another compound)
- T/C (dose: 100.0 mg/kg/injection, schedule: Q01DX001 (ip), vehicle: saline with Tween-80): 100 % of control
- T/C (dose: 200.0 mg/kg/injection, schedule: Q01DX001 (ip), vehicle: saline with Tween-80): 90 % of control
- T/C (dose: 400.0 mg/kg/injection, schedule: Q01DX001 (ip), vehicle: saline with Tween-80): 92 % of control

Structure (SMILES): CCOc1cc(/C=N\NC(=O)C(=O)N/N=C\c2ccc(O)c(OCC)c2)ccc1O
- T/C (dose: 50.0 mg/kg/injection, schedule: Q01DX009 (ip), vehicle: Klucel (hydroxypropylcellulose) (HPC)): 96 % of control
- T/C (dose: 100.0 mg/kg/injection, schedule: Q01DX009 (ip), vehicle: Klucel (hydroxypropylcellulose) (HPC)): 94 % of control
- T/C (dose: 200.0 mg/kg/injection, schedule: Q01DX009 (ip), vehicle: Klucel (hydroxypropylcellulose) (HPC)): 94 % of control
